Each structure is given as a SMILES string. Positions count from the first letter of the chain named.

One assay has as its target T1, pig kidney FBPase Y164A (Sus scrofa, UniProt P00636, Y165A).
T1 construct: His6 (C); made in house; host or cells: Escherichia coli BL21 (DE3)
T1 sequence (P00636 1-338 Y165A): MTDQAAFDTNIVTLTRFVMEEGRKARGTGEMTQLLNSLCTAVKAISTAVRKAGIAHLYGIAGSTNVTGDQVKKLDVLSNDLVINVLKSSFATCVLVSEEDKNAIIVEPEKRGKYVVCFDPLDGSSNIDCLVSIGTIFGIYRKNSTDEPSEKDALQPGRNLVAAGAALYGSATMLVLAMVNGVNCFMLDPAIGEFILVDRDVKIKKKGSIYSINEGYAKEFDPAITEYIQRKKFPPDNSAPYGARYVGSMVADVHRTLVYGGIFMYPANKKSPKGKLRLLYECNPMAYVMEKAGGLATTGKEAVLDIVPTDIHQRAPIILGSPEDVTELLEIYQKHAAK
The assay is described as follows: Malachite Green kinetic assay, Y164A mutant. The following applies: enzyme Y164A; for IC50: FBP substrate 10 to 50 µM. It counts as biochemical. The method, then: (§1) For the kinetic assay, a standard curve was obtained from an ammonium molybdate Malachite Green inorganic phosphate assay (OD660 nm). The purified FBPase protein was dialyzed ×3 in 50 mM Tris buffer at pH 7.5 at 4°C. For enzyme concentration, absorbency values were recorded for all five mutant proteins using spectrophotometer readings at OD280 nm. To quantitate enzyme concentration, the enzymes were calculated based on the quantity of micrograms per microliter (µg/µl) present. Final concentration of WT and mutant enzymes was between 2.5 and 5.0 µg/µl. Using a colorimetric assay as described below, specific activity (SA) was determined. At last, all kinetic and binding assays described below were performed in 50 mM Tris pH 7.5.
(§2) Kinetic assays were performed for WT and mutant enzymes to identify functional differences between the WT enzyme and the mutants. […] Readings recorded at OD660 nm for each enzyme were applied to the standard curve equation. Micromoles of inorganic phosphate were calculated to determine the SA of mutant enzymes.
(§3) For each clone, the kinetic assay was performed in duplicates of triplicates. Malachite Geen was used to detect inorganic phosphate. Two separate clones were processed independently of the same mutant. All kinetic data were fit to symmetric sigmoidal curve using Origin software based on methods previously described [[27–29]]. More specifically, for kinetic parameters established via curve fitting (shown in Tables 1–3; and in Figure 5A,B), the equation y = d + (a − d)/1 + (x/c)^b was used where ‘x’ is represented by apparent Michelis constant (Km) when y = Vmax. […] P-values were significant at <0.001 and represent a comparison with the WT enzyme.

The target of a further assay is T2, pig kidney FBPase L56A (Sus scrofa, UniProt P00636, L57A).
T2 construct: His6 (C); made in house; host or cells: Escherichia coli BL21 (DE3)
T2 sequence (P00636 1-338 L57A): T1 sequence (P00636 1-338 Y165A) with L57A, A165Y
Nature of the assay: Malachite Green kinetic assay, L56A mutant. It counts as biochemical. The conditions noted are these: enzyme L56A; for IC50: FBP substrate 10 to 50 µM. The procedure:
as §1, §2, §3

The target in the next assay is T3, pig kidney FBPase M248D (Sus scrofa, UniProt P00636, M249D).
T3 construct: His6 (C); made in house; host or cells: Escherichia coli BL21 (DE3)
T3 sequence (P00636 1-338 M249D): T1 sequence (P00636 1-338 Y165A) with A165Y, M249D
Nature of the assay: Malachite Green kinetic assay, M248D mutant. The following applies: for IC50: FBP substrate 10 to 50 µM. Format: biochemical. The procedure: as §1, §2, §3

The target in a further assay is T4, pig kidney FBPase M177A (Sus scrofa, UniProt P00636, M178A).
T4 construct: His6 (C); made in house; host or cells: Escherichia coli BL21 (DE3)
T4 sequence (P00636 1-338 M178A): T1 sequence (P00636 1-338 Y165A) with A165Y, M178A
Nature of the assay: Differential scanning fluorimetry, M177A mutant. Format: binding. The following applies: enzyme M177A. The method, then: (§4) Differential scanning fluorimetry (DSF) assays were designed and implemented to run on WT and each mutant for the purpose of determining relative stabilities by melting point, and to detect structural changes in the enzymes upon ligand binding. Thermal shift assays were performed with a Light Cycler 96 System Real-Time PCR machine (Roche) using Sypro-Orange dye (Invitrogen) and thermal ramping (0.25°C per min between 20 and 85°C). […] Data were processed using the Boltzmann equation to generate sigmoidal denaturation curves, and average Tm/ΔTm values were calculated as previously described using GraphPad Prism software package.
On the technique in general: DSF heats the sample and reads unfolding from a dye or from intrinsic fluorescence.

The next assay deals with T5, pig kidney FBPase L73A (Sus scrofa, UniProt P00636, L74A).
T5 construct: His6 (C); made in house; host or cells: Escherichia coli BL21 (DE3)
T5 sequence (P00636 1-338 L74A): T1 sequence (P00636 1-338 Y165A) with L74A, A165Y
Nature of the assay: Differential scanning fluorimetry, L73A mutant. Format: binding. The following applies: enzyme L73A. The procedure: as §4

The mark [1] stands for this setting: association (binding) constant from saturation curve.

`Nc1ncnc2c1ncn2[C@@H]1O[C@H](COP(=O)(O)O)[C@@H](O)[C@H]1O` [AMP]: the “AMP Hill coefficient” value is given as 2.8 (± 0.2) at pig kidney FBPase Y164A, 2.3 (± 0.2) on pig kidney FBPase L56A and 2.5 (± 0.2) at pig kidney FBPase M248D (enzyme M248D). Further, the half-inhibitory concentration (IC50) – broadly, the concentration that inhibits the measured activity by half – was found to be 2.5 µM against pig kidney FBPase Y164A, 7.35 µM against pig kidney FBPase L56A and 7.2 µM against pig kidney FBPase M248D (enzyme M248D). Also, the “melting point of enzyme with AMP (100 µM)” value at pig kidney FBPase M177A (AMP 100 µM) was 54.1 (± 1.25) °C; on pig kidney FBPase L73A (AMP 100 µM) it was 56.0 (± 3.00) °C.
With `O=P(O)(O)OC[C@H]1O[C@@](CO)(OP(=O)(O)O)[C@@H](O)[C@@H]1O` [F2,6-BP, fructose-2,6-bisphosphate], the Ki (as a rule, a measure of affinity in units of concentration, obtained from inhibition or displacement) stood at 0.15 µM on pig kidney FBPase Y164A, 1.25 µM at pig kidney FBPase L56A and 1.5 µM on pig kidney FBPase M248D (enzyme M248D). For the same compound, the IC50 came to 0.95 µM against pig kidney FBPase Y164A, 7.5 µM against pig kidney FBPase L56A and 10.5 µM against pig kidney FBPase M248D (enzyme M248D).
As to `[Mg+2]` [Mg^2+, magnesium], the Ka is listed as 0.50 (± 0.15) mM on pig kidney FBPase Y164A (setting [1]); 0.52(± 0.13) mM on pig kidney FBPase L56A (setting [1]); 0.08 (± 0.02) mM on pig kidney FBPase M248D (enzyme M248D, association (binding) constant from saturation curve). Besides, the Hill coefficient (as a rule, a measure of the steepness of the concentration-response curve) at pig kidney FBPase Y164A (for magnesium) is given as 2.15 (± 0.12); at pig kidney FBPase L56A (for magnesium), 2.75 (± 0.16); on pig kidney FBPase M248D (enzyme M248D, for magnesium), 2.20 (± 0.17). Besides, the “decrease in Ka for magnesium binding” value at pig kidney FBPase M248D (enzyme M248D vs WT) is 6.25. The results for the “melting point of enzyme with Mg^2+ ([…])” value at pig kidney FBPase M177A (Mg^2+ […]) and on pig kidney FBPase L73A (Mg^2+ […]) were 55.8 (± 1.75) °C and 56.5 (±2.25) °C, respectively.
